Key:
[1] = Plasma pharmacokinetics after oral Posiphen in Beagle dogs (LC-MS/MS); design: species or system dog; details: for Mean plasma concentration: Beagle dogs, Posiphen 20 mg/kg; for Tmax: dog plasma, Posiphen PO 20 mg/kg, n = 12
Protocol: (§1) In rats and dogs, blood samples were centrifuged, and the resultant plasma was separated, and 200 µL (rat) or 400 µL (dog) of plasma was transferred to uniquely labeled pre-chilled polypropylene tubes containing 5 µL (rat) or 10 µL (dog) Dichlorvos spiking solution (nominal concentration of 0.82 mg/mL in MeOH/Water, 20/80, v/v).
(§2) The detection limit was 0.025 ng/mL.

[2] = clinical; details: human, in vivo
Protocol: This paper describes data from multiple studies. The healthy volunteers’ data come from the single ascending and multiple ascending dose study, whereas Alzheimer’s and Parkinson’s patients are represented by the MCI NCT01072812 study, ADCS NCT02925650 study, and AD/PD NCT04524351 study. The evaluations are based on a sample size of n = 4 for each time point.
In humans, plasma and lumbar CSF samples were collected via an indwelling catheter over 12 h (at 0, 1, 1.5, 2, 3, 4, 6, 8, and 12 h) initiated at the same time of day, 1 day prior to the start of dosing, to obtain time-dependent baseline control data, and then at the exact same times immediately after the last dose was administered. Samples were frozen and then stored at −80 °C.
(§3) In humans, the bioanalytical method was performed in accordance with current FDA, Industry Guidelines, and OECD Principles. […] The sample analysis was conducted in accordance with current GCP and GLP principles, and the results were presented for pharmacokinetic profiling (Absorption Systems, Exton, PA, USA). Calibration ranges for each analyte ranged from 1000 ng/mL to 1 ng/mL (or ng/g for brain) in plasma, brain, and CSF matrices. The detection limit was 0.025 ng/mL. The following PK parameters were collected for the purpose of this manuscript: maximum concentration (Cmax), time to maximum drug concentration (Tmax), half-life (T1/2), and the Area Under the Curve (AUC).

[3] = Plasma pharmacokinetics after oral Posiphen in Sprague Dawley rats (LC-MS/MS); assay type: in vivo, rat
Protocol: as §1, §2

[4] = Posiphen pharmacokinetics compared across species (mouse, rat, dog, human); assay type: in vivo
Protocol: (§4) This paper describes data from multiple studies.
as §2

[5] = human; side effects nausea and vomiting; cited from earlier work
[6] = Plasma pharmacokinetics after oral Posiphen in CD-1 mice (LC-MS/MS); details: for Mean plasma concentration: CD-1 mice, Posiphen 65 mg/kg
Protocol: (§5) The animal PKs were taken from multiple GLP toxicology studies, biomarker studies, and efficacy studies. […] Sample size (n) represents the number of animals at each time point of sample collection. […] The dose volume was determined according to animals’ weight collected on the dosing day.
(§6) In mice, blood samples were collected via the saphenous vein or other suitable blood collection site into a microcentrifuge tube containing the anti-coagulant K2-EDTA on wet ice and processed for plasma. For samples collected within the first hour of dosing, ±1 min is acceptable, while for all other timepoints, samples were taken within 5% of the scheduled time and are not considered as protocol deviations. Plasma samples were centrifuged (3200× g for 10 min at 4 °C) within an hour of collection. CSF samples were collected with 3 μL volume per time point, frozen on dry ice, and stored at −60 °C for further analysis. For brain collection in mice, animals were euthanized using CO2 inhalation. Whole brain was collected, washed in cold saline, dried, and homogenized immediately […]. Homogenizing buffer MeOH/15 mM PBS (1:2, v:v) was used at a ratio of 1:9 (1 g of tissue with 9 mL of buffer; the dilution ratio is 10).
as §3
Blood plasma samples were collected at various time points within the initial 8 h following administration (6 h for humans). Plasma concentrations (ng/mL) were measured over the 8 h observation window to characterize the maximum concentration (Cmax), the time to peak drug concentration (Tmax), the half-life (T1/2), and the Area Under the Curve (AUC).

[7] = in vivo; details: CD-1, mouse; for T1/2 / Tmax / Tmax (time of Cmax) / Cmax: po; for Cmax: 65 mg/kg
Protocol: as §5, §6, §3

[8] = LogD; assay type: physicochemical
[9] = system: acetylcholinesterase; details: cited from earlier work
[10] = system: neurotoxic aggregating proteins; details: cited from earlier work
[11] = Plasma pharmacokinetics after oral Posiphen in humans (LC-MS/MS); assay type: in vivo, human; details: for Tmax: Posiphen PO 80 mg/day (1.1 mg/kg), n = 4
Protocol: as §4
Samples were frozen and then stored at −80 °C.
as §2

[12] = both sexes, Beagle, dog, in vivo, po, 20 mg/kg
[13] = both sexes, Sprague Dawley, rat, in vivo, 40 mg/kg
[14] = both sexes, Sprague Dawley, rat, in vivo, po, 40 mg/kg
[15] = both, CD-1, mouse, in vivo, po, 65 mg/kg

Structure (SMILES): CN1CC[C@]2(C)c3cc(OC(=O)Nc4ccccc4)ccc3N(C)C12.O=C(O)C(O)C(O)C(=O)O (stereo partly drawn) [Posiphen, (3aR)-1,3a, 8-trimethyl-1,2,3,3a, 8,8a-hexahydropyrrolo (2,3-b) indol-5-yl phenylcarbamate tartrate]
- Mean plasma concentration ([1]; 0.25 h): 2.34 ng/mL
- Mean plasma concentration ([1]; 0.5 h): 241 ng/mL
- Mean plasma concentration ([1]; 1 h): 326 ng/mL
- Mean plasma concentration ([1]; 2 h): 203 ng/mL
- Mean plasma concentration ([1]; 4 h): 32.3 ng/mL
- Mean plasma concentration ([1]; 8 h): 4.4 ng/mL
- Mean plasma concentration ([1]; 12 h): 1.27 ng/mL
- Cmax [1, 12]: 402 ng/mL
- half-life [1, 12]: 1.96 h
- Tmax ([1]; both sexes, Beagle, dog, in vivo, po, 20 mg/kg, read-out: Tmax): 1 to 2 h
- AUC(0-t) ([1]; both sexes, Beagle, dog, in vivo, po, 20 mg/kg, read-out: AUC (0–8 h)): 756 ng·h/mL
- Tmax ([1]; 20 mg/kg): 1.18 h
- Kp [2]: 0.02
- half-life [2]: > 12 h
- AUC(0-t) ([2]; po): 20.7 ng·h/mL
- Cmax ([2]; po): 2.23 ng/mL
- T1/2 ([2]; po): 3 h
- Tmax ([2]; po): 17.26 h
- Tmax (time of Cmax) ([2]; po): 3 h
- concentration at 0.25 h [3, 13]: 1090 ng/mL
- concentration at 1 h [3, 13]: 771 ng/mL
- concentration at 2 h [3, 13]: 381 ng/mL
- concentration at 4 h [3, 13]: 243 ng/mL
- concentration at 8 h [3, 13]: 234 ng/mL
- Cmax [3, 14]: 1180 ng/mL
- half-life [3, 14]: 1.03 h
- Tmax ([3]; both sexes, Sprague Dawley, rat, in vivo, po, 40 mg/kg, rat plasma, Posiphen PO 40 mg/kg, n = 6): < 1 h
- AUC(0-t) ([3]; both sexes, Sprague Dawley, rat, in vivo, po, 40 mg/kg, read-out: AUC (0–8 h)): 1140 ng·h/mL
- Primary compound in plasma ([3]; rat plasma): primary compound
- half-life ([4]; CSF or brain, oral): > 12 h
- Time to peak ([4]; all analyzed species: mouse, rat, dog, human): ≤ 2 h
- Maximum tolerated dose [5]: 160 mg
- Mean plasma concentration ([6]; 0.25 h): 937 ng/mL
- Mean plasma concentration ([6]; 0.5 h): 939 ng/mL
- Mean plasma concentration ([6]; 1 h): 610 ng/mL
- Mean plasma concentration ([6]; 2 h): 571 ng/mL
- Mean plasma concentration ([6]; 4 h): 19.5 ng/mL
- AUC(0-t) ([6]; Table 2, mouse plasma, oral Posiphen): 1707 ng·h/mL
- AUC(0-t) [6, 15]: 1710 ng·h/mL
- Cmax [6, 15]: 939 ng/mL
- half-life ([6]; both, CD-1, mouse, in vivo, po, 65 mg/kg, T1/2, mouse plasma, Posiphen PO 65 mg/kg, n = 7): 0.56 h
- Tmax ([6]; both, CD-1, mouse, in vivo, po, 65 mg/kg, Tmax, mouse plasma, Posiphen PO 65 mg/kg, n = 7): < 1 h
- T1/2 ([6]; mouse plasma, Posiphen PO 65 mg/kg, n = 7, 65 mg/kg): 0.562 h
- Kp [7]: 5.04
- Kp ([7]; in vivo): 0.17
- T1/2 ([7]; in vivo): 0.5 h
- Tmax ([7]; in vivo): 2.32 h
- Tmax (time of Cmax) ([7]; in vivo): 0.5 h
- Cmax ([7]; in vivo, Cmax): 163 ng/mL
- T1/2 [7]: 0.5 h
- Tmax [7]: 0.74 h
- Tmax (time of Cmax) [7]: 0.5 h
- Cmax [7]: 4740 ng/mL
- logD [8]: 2.2
- Acetylcholinesterase inhibitory (AChEI) activity [9]: no acetylcholinesterase inhibitory (AChEI) activity
- TINAP activity [10]: have TINAP
- Primary compound in plasma ([11]; human plasma): primary compound
- Tmax ([11]; human plasma): 1.45 h
- Cmax ([11]; human, in vivo, po): 117 ng/mL
- Cmax ([11]; human, in vivo, po, 1.1 mg/kg): 120 ng/mL
- Tmax ([11]; human, in vivo, po, 1.1 mg/kg, human plasma, read-out: Tmax): 1 to 2 h
- AUC(0-t) ([11]; human, in vivo, po, 1.1 mg/kg, read-out: AUC (0–8 h)): 310 ng·h/mL
- AUC(0-t) ([11]; human, in vivo, po, read-out: AUC (0-t)): 565 ng·h/mL

Source: PMC11117716 (Biomolecules, 2024)
